The text below walks through data of patent publication US8772480B2, “Inhibitors of PI3 kinase and/or mTOR” (priority 2009, dated 2014).

Where two headings read alike, the source gives them in different places.

One experiment has as its target PI3Kα (Homo sapiens (Human), UniProt P42336). The following applies: read-out: PI3Kα AlphaScreen ® Ki. (Alpha assays give light when donor and acceptor beads are brought close together.)
The test system of experiment [1] is phosphorylation of Akt at Serine 473 in U87 MG cells. Put plainly: cells. As to conditions: Homo sapiens, U-87 MG, 2 h.
[2] abbreviates: read-out: U87Cell IC50, pAkt (Ser 473), U87 MG cells, two hours with compound.

Chain of PI3Kα (P42336 whole entry): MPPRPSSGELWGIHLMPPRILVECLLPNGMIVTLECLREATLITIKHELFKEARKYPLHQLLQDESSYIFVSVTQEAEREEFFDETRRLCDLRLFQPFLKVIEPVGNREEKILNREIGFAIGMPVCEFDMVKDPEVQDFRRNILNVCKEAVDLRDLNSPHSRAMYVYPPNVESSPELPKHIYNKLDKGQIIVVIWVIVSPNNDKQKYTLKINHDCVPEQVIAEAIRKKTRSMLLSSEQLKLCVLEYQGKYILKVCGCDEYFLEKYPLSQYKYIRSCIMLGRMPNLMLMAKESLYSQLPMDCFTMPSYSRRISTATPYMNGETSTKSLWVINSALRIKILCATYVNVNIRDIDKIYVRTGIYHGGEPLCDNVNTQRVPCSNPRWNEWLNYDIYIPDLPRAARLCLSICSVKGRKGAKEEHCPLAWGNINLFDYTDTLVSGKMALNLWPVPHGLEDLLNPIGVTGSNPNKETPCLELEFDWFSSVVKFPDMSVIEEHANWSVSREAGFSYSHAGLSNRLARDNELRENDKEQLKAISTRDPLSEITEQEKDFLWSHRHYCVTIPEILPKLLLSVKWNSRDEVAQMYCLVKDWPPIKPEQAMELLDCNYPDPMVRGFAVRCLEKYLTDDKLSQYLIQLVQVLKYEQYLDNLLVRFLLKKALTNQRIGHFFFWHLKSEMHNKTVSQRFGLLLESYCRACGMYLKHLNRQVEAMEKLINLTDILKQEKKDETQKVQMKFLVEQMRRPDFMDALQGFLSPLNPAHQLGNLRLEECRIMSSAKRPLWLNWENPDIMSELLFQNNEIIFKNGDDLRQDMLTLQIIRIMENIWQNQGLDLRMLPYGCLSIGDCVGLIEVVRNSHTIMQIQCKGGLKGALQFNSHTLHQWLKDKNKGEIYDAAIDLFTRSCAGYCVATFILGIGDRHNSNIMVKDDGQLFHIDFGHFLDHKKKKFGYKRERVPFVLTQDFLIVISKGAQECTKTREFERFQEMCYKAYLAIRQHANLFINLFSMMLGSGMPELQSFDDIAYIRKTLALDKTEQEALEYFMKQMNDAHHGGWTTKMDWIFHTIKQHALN
Chain of PI3Kα (P27986 whole entry partner): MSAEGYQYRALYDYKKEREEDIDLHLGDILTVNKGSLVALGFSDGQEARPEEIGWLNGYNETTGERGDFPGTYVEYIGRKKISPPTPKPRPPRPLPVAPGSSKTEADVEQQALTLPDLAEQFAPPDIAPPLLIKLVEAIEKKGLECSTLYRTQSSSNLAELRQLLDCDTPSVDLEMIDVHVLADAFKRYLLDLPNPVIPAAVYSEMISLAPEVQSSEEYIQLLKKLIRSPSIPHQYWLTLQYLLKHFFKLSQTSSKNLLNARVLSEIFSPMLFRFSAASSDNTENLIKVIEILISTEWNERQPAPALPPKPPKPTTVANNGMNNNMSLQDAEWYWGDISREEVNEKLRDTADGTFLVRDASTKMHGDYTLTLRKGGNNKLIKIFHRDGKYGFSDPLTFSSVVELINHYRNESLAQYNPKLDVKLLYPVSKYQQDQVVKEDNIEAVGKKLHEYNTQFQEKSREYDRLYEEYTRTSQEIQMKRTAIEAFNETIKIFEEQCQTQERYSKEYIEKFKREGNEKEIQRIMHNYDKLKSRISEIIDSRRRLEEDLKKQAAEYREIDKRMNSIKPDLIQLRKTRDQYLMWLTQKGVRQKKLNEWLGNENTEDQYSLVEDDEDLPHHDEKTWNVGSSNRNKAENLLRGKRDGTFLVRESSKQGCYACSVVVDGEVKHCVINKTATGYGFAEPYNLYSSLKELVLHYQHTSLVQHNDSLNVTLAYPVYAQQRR

`COc1ncc(Nc2ncc([C@@H](C)N3CCN(S(C)(=O)=O)CC3)cc2-c2nc(C)nc3[nH]cnc23)cc1F` [Example 297, (R)—N-(5-Fluoro-6-Methoxypyridin-3-yl)-3-(2-Methyl-9H-Purin-6-yl)-5-(1-(4-(Methylsulfonyl)Piperazin-1-yl)Ethyl)Pyridin-2-Amine]: on PI3Kα, the inhibitory constant (Ki) (as a rule, a dissociation constant, usually derived from enzyme kinetics or from competition with a known ligand) stood at 0.001 µM. For the same compound, the IC50 – broadly, the concentration that inhibits the measured activity by half – in experiment [1] (setting [2]) worked out at 0.009 µM.

As for `COc1ncc(Nc2ncc(C3(O)CC3)cc2-c2nc(C)nc(N)n2)cc1F` [Example 298, 1-(5-(4-Amino-6-Methyl-1,3,5-Triazin-2-yl)-6-(5-Fluoro-6-Methoxypyridin-3-Ylamino)Pyridin-3-yl)Cyclopropanol], the inhibition constant Ki at PI3Kα came out at 0.004 µM. Further, the half-inhibitory concentration (IC50) in experiment [1] (setting [2]) is 0.023 µM.

Take `COc1ncc(Nc2ncc(C(C)NC(C)C)cc2-c2nc(C)nc(N)n2)cc1F` (stereo not shown) [Example 299, 4-(2-(5-Fluoro-6-Methoxypyridin-3-Ylamino)-5-(1-(Isopropylamino)Ethyl)Pyridin-3-yl)-6-Methyl-1,3,5-Triazin-2-Amine]: the Ki at PI3Kα was determined as 0.061 µM. Besides, the 50% inhibitory concentration (IC50) in experiment [1] (setting [2]) came to 0.045 µM.

For `COc1ncc(Nc2ncc(C3(N)CC3)cc2-c2nc(C)nc(N)n2)cc1F` [Example 300, 4-(5-(1-Aminocyclopropyl)-2-(5-Fluoro-6-Methoxypyridin-3-Ylamino)Pyridin-3-yl)-6-Methyl-1,3,5-Triazin-2-Amine], at PI3Kα, the inhibition constant Ki is 0.074 µM. Also, in experiment [1] (setting [2]), the half-inhibitory concentration (IC50) was found to be 0.017 µM.

As to `CCC(N)(CC)c1cnc(Nc2cnc(OC)c(F)c2)c(-c2nc(C)nc(N)n2)c1` [Example 301, 4-(5-(3-Aminopentan-3-yl)-2-(5-Fluoro-6-Methoxypyridin-3-Ylamino)Pyridin-3-yl)-6-Methyl-1,3,5-Triazin-2-Amine], the Ki at PI3Kα turned out to be 0.11 µM. Besides, the 50% inhibitory concentration (IC50) in experiment [1] (setting [2]) turned out to be 0.07 µM.

With `COc1ncc(Nc2ncc([C@@H](C)N3CCN(S(C)(=O)=O)CC3)cc2-c2nc(C)nc(N)n2)cc1C(C)C` [Example 302, (R)-4-(2-(5-Isopropyl-6-Methoxypyridin-3-Ylamino)-5-(1-(4-(Methylsulfonyl)Piperazin-1-yl)Ethyl)Pyridin-3-yl)-6-Methyl-1,3,5-Triazin-2-Amine], at PI3Kα, the Ki is 0.024 µM. In experiment [1] (setting [2]), the IC50 was 0.203 µM.

Turning to `CCS(=O)(=O)c1cnc(Nc2cnc(OC)c(F)c2)c(-c2nc(C)nc(N)n2)c1` [Example 303, 4-(5-(ethylsulfonyl)-2-(5-fluoro-6-methoxypyridin-3-ylamino)pyridin-3-yl)-6-methyl-1,3,5-triazin-2-amine], the Ki at PI3Kα was determined as 0.807 µM. Moreover, the 50% inhibitory concentration (IC50) in experiment [1] (setting [2]) was above 10 µM.

Consider `Cc1nc(N)cc(-c2cccnc2Nc2cnc(Cl)c(NS(C)(=O)=O)c2)n1` [Example 304, N-(5-((3-(6-amino-2-methyl-4-pyrimidinyl)-2-pyridinyl)amino)-2-chloro-3-pyridinyl)methanesulfonamide], for which the Ki on PI3Kα stood at 0.029 µM. Also, the concentration for half-maximal inhibition (IC50) in experiment [1] (setting [2]) was 0.146 µM.

With `COc1ncc(Nc2ncc([C@@H](C)N3CCN(S(C)(=O)=O)CC3)cc2-c2cc(N)nc(C)n2)cc1F` [Example 305, 6-(2-((5-fluoro-6-methoxy-3-pyridinyl)amino)-5-((1R)-1-(4-(methylsulfonyl)-1-piperazinyl)ethyl)-3-pyridinyl)-2-methyl-4-pyrimidinamine], the Ki on PI3Kα came out at 0.002 µM. In addition, the IC50 in experiment [1] (setting [2]) amounted to 0.001 µM.

For the compound `COc1ncc(Nc2ncc([C@@H](C)N3CCN(S(C)(=O)=O)C[C@@H]3C)cc2-c2cc(N)nc(C)n2)cc1F` [Example 306, 6-(2-((5-fluoro-6-methoxy-3-pyridinyl)amino)-5-((1R)-1-((2S)-2-methyl-4-(methylsulfonyl)-1-piperazinyl)ethyl)-3-pyridinyl)-2-methyl-4-pyrimidinamine], at PI3Kα, the Ki was 0.001 µM. For the same compound, the IC50 in experiment [1] (setting [2]) was 0.003 µM.

With `Cc1nc(N)cc(-c2nccnc2Nc2cnc(Cl)c(NS(C)(=O)=O)c2)n1` [Example 307, N-(5-((3-(6-amino-2-methyl-4-pyrimidinyl)-2-pyrazinyl)amino)-2-chloro-3-pyridinyl)methanesulfonamide], the inhibitory constant (Ki) at PI3Kα amounted to 0.26 µM. For the same compound, the IC50 in experiment [1] (setting [2]) was above 10 µM.

Consider `COc1ccc(Nc2ncc(C(C)N3CC(S(C)(=O)=O)C3)cc2-c2nc(C)nc(N)n2)cn1` (stereo not shown) [Example 308, 4-(2-(6-methoxypyridin-3-ylamino)-5-(1-(3-(methylsulfonyl)azetidin-1-yl)ethyl)pyridin-3-yl)-6-methyl-1,3,5-triazin-2-amine 2,2,2-trifluoroacetate], for which, on PI3Kα, the Ki worked out at 0.019 µM. In experiment [1] (read-out: U87Cell IC50), the half-maximal inhibitory concentration (IC50) was 0.06 µM.

For the compound `Cc1nc(N)nc(-c2cc([C@@H](C)N3CCN(S(C)(=O)=O)CC3)cnc2Nc2ccc(Cl)nc2)n1` [Example 309, (R)-4-(2-(6-chloropyridin-3-ylamino)-5-(1-(4-(methylsulfonyl)piperazin-1-yl)ethyl)pyridin-3-yl)-6-methyl-1,3,5-triazin-2-amine], the Ki on PI3Kα was found to be 0.044 µM. The half-maximal inhibitory concentration (IC50) in experiment [1] (setting [2]) came to 0.046 µM.

`Cc1nc(N)nc(-c2cc([C@@H](C)N3CCN(S(C)(=O)=O)CC3)cnc2Nc2ccc3cccnc3c2)n1` [Example 310, (R)—N-(3-(4-amino-6-methyl-1,3,5-triazin-2-yl)-5-(1-(4-(methylsulfonyl)piperazin-1-yl)ethyl)pyridin-2-yl)quinolin-7-amine 2,2,2-trifluoroacetate]: the Ki on PI3Kα was 0.036 µM. The concentration for half-maximal inhibition (IC50) in experiment [1] (read-out: U87Cell IC50) came out at 0.065 µM.

On to `COc1ncc(Nc2ncc(CN3CCN(S(C)(=O)=O)CC3C(F)(F)F)cc2-c2nc(C)nc(N)n2)cc1F` (stereo not shown) [Example 313, 4-(2-(5-Fluoro-6-Methoxypyridin-3-Ylamino)-5-((4-(Methylsulfonyl)-2-(Trifluoromethyl)Piperazin-1-yl)Methyl)Pyridin-3-yl)-6-Methyl-1,3,5-Triazin-2-Amine], for which, at PI3Kα, the Ki came out at 0.007 µM. Moreover, in experiment [1] (setting [2]), the half-inhibitory concentration (IC50) is above 10 µM.

Consider `COc1ncc(Nc2ncc(CN3CCOC[C@@H]3C)cc2-c2nc(C)nc(N)n2)cc1F` [Example 315, (S)-4-(2-(5-Fluoro-6-Methoxypyridin-3-Ylamino)-5-((3-Methylmorpholino)Methyl)Pyridin-3-yl)-6-Methyl-1,3,5-Triazin-2-Amine], for which the Ki on PI3Kα was determined as 0.027 µM. In addition, the half-maximal inhibitory concentration (IC50) in experiment [1] (setting [2]) was 0.031 µM.

In the case of `COc1cc(Nc2ncc(CN3CCN(S(C)(=O)=O)C[C@@H]3C)cc2-c2nc(C)nc(N)n2)cnc1Cl` [Example 317, (S)-4-(2-(6-Chloro-5-Methoxypyridin-3-Ylamino)-5-((2-Methyl-4-(Methylsulfonyl)Piperazin-1-yl)Methyl)Pyridin-3-yl)-6-Methyl-1,3,5-Triazin-2-Amine], the inhibition constant Ki at PI3Kα was found to be 0.018 µM. Further, the IC50 in experiment [1] (setting [2]) was determined as 0.012 µM.

With `Cc1nc(N)nc(-c2cc(CN3CCN(S(C)(=O)=O)C[C@@H]3C)cnc2Nc2ccc(Cl)nc2)n1` [Example 318, (S)-4-(2-(6-Chloropyridin-3-Ylamino)-5-((2-Methyl-4-(Methylsulfonyl)Piperazin-1-yl)Methyl)Pyridin-3-yl)-6-Methyl-1,3,5-Triazin-2-Amine], on PI3Kα, the Ki was found to be 0.032 µM. The IC50 in experiment [1] (setting [2]) is 0.044 µM.

As for `COc1ncc(Nc2ncc(CN3CCN(S(C)(=O)=O)C[C@@H]3C)cc2-c2nc(C)nc(N)n2)cn1` [Example 319, (S)-4-(2-(2-Methoxypyrimidin-5-Ylamino)-5-((2-Methyl-4-(Methylsulfonyl)Piperazin-1-yl)Methyl)Pyridin-3-yl)-6-Methyl-1,3,5-Triazin-2-Amine], the Ki on PI3Kα came to 0.021 µM. Moreover, the IC50 in experiment [1] (setting [2]) was 0.052 µM.

Take `COc1ccc(Nc2ncc(C(C)(O)C(F)(F)F)cc2-c2nc(C)nc(N)n2)cn1` (stereo not shown) [Example 320, 2-(5-(4-amino-6-methyl-1,3,5-triazin-2-yl)-6-(6-methoxypyridin-3-ylamino)pyridin-3-yl)-1,1,1-trifluoropropan-2-ol]: the Ki at PI3Kα turned out to be 0.124 µM. The half-maximal inhibitory concentration (IC50) in experiment [1] (setting [2]) was 0.061 µM.

For the compound `COc1ccc(Nc2ncc(C(N3CCN(S(C)(=O)=O)CC3)C(F)(F)F)cc2-c2nc(C)nc(N)n2)cn1` (stereo not shown) [Example 321, 4-(2-(6-Methoxypyridin-3-Ylamino)-5-(2,2,2-Trifluoro-1-(4-(Methylsulfonyl)Piperazin-1-yl)Ethyl)Pyridin-3-yl)-6-Methyl-1,3,5-Triazin-2-Amine], the inhibition constant (Ki) on PI3Kα is 0.034 µM. Besides, in experiment [1] (setting [2]), the IC50 was 0.08 µM.

Regarding `COc1ccc(Nc2ncc([C@@H](O)C(F)(F)F)cc2-c2nc(C)nc(N)n2)cn1` [Example 322, (R)-1-(5-(4-amino-6-methyl-1,3,5-triazin-2-yl)-6-(6-methoxypyridin-3-ylamino)pyridin-3-yl)-2,2,2-trifluoroethanol], the Ki at PI3Kα worked out at 0.086 µM. In addition, the IC50 in experiment [1] (setting [2]) stood at 0.051 µM.

On to `COc1ccc(Nc2ncc([C@H](O)C(F)(F)F)cc2-c2nc(C)nc(N)n2)cn1` [Example 323, (S)-1-(5-(4-amino-6-methyl-1,3,5-triazin-2-yl)-6-(6-methoxypyridin-3-ylamino)pyridin-3-yl)-2,2,2-trifluoroethanol], for which the Ki at PI3Kα came to 0.034 µM. Moreover, the 50% inhibitory concentration (IC50) in experiment [1] (setting [2]) is 0.046 µM.

Take `COc1ccc(Nc2ncc(C(N)C(F)(F)F)cc2-c2nc(C)nc(N)n2)cn1` (stereo not shown) [Example 324, 4-(5-(1-Amino-2,2,2-Trifluoroethyl)-2-(6-Methoxypyridin-3-Ylamino)Pyridin-3-yl)-6-Methyl-1,3,5-Triazin-2-Amine]: the inhibitory constant (Ki) on PI3Kα is 0.059 µM. Moreover, the IC50 in experiment [1] (setting [2]) stood at 0.106 µM.

On to `Cc1nc(N)nc(-c2cc(CN3CCN(S(C)(=O)=O)CC3)cnc2Nc2ccc3ccncc3c2)n1` [Example 326, N-(3-(4-Amino-6-Methyl-1,3,5-Triazin-2-yl)-5-((4-(Methylsulfonyl)Piperazin-1-yl)Methyl)Pyridin-2-yl)Isoquinolin-7-Amine], for which the inhibition constant (Ki) on PI3Kα is 0.068 µM. Further, the half-inhibitory concentration (IC50) in experiment [1] (setting [2]) came out at 0.057 µM.

Take `COc1ncc(Nc2ncc(C(C)N)cc2-c2nc(C)nc(N)n2)cc1F` (stereo not shown) [Example 327, 4-(5-(1-Aminoethyl)-2-(5-Fluoro-6-Methoxypyridin-3-Ylamino)Pyridin-3-yl)-6-Methyl-1,3,5-Triazin-2-Amine]: on PI3Kα, the inhibition constant (Ki) came to 0.069 µM. The IC50 in experiment [1] (setting [2]) turned out to be 0.146 µM.
